Test systems include HL-60(TB) leukemia; T-47D breast; SF-539 CNS; SF-268 CNS; LOX IMVI melanoma; K-562 leukemia; HCC-2998 colon; HT29 colon; MALME-3M melanoma; NCI-H460 lung.
Assay in all cases: DTP human tumour cell line panel, 48 h

Values joined by “and” are separate entries in the source; they are usually repeats but may differ in a detail not shown here. Equal entries are not always repeated.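 These data come from cells grown in 96-well plates and exposed to compound for 48 hours at five concentrations. Abbreviation: GI50, concentration required for 50% inhibition of growth. Definition used: TGI = concentration required for complete inhibition of growth.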 A value given as a limit tells only on which side of the number the result lay.

The term GI50 denotes the concentration that inhibits growth by half. One may read the TGI as the concentration at which net growth stops. A low value points to greater sensitivity of the cells. `CCNC(=O)Oc1ccc(/C(=C(\C)c2ccc(Cl)cc2)c2ccc(OCCN3CCCCC3)cc2)cc1`: the GI50 was 1990 nM in the assay on HL-60(TB) leukemia; 1340 nM in the assay on T-47D breast; 1810 nM in the assay on SF-539 CNS; 6.04 µM in the assay on SF-268 CNS; 1.93 µM in the assay with LOX IMVI melanoma; 2340 nM in the assay with K-562 leukemia. The GI50 with HCC-2998 colon is 3530 nM; in the assay on HT29 colon, 3.16 µM; with MALME-3M melanoma it was 1780 nM; in the assay with NCI-H460 lung, 2.19 µM. Also, the TGI in the assay with HL-60(TB) leukemia amounted to 4.47 µM; in the assay with T-47D breast it was 10.2 µM; in the assay on SF-539 CNS, 3.59 µM; in the assay with SF-268 CNS, 20.9 µM; in the assay with LOX IMVI melanoma, 3.94 µM; in the assay with K-562 leukemia, 5.96 µM. Further, the TGI in the assay on HCC-2998 colon was determined as 13.4 µM; in the assay on HT29 colon, 10.9 µM; in the assay on MALME-3M melanoma, 3.9 µM; in the assay on NCI-H460 lung it was 4.64 µM.
As to `CCCCCCN(CCCCCC)CC(O)c1cccc2ccc(Cl)cc12` (stereo not given), the GI50 in the assay on HL-60(TB) leukemia was 9630 nM; in the assay with T-47D breast, 1670 nM; in the assay on SF-539 CNS, 1580 nM; in the assay on SF-268 CNS, 12.4 µM; with LOX IMVI melanoma it was 4.14 µM; with K-562 leukemia, 4870 nM. The GI50 in the assay with HCC-2998 colon was 2960 nM; with HT29 colon, 3.86 µM; in the assay on MALME-3M melanoma it was 9430 nM; in the assay on NCI-H460 lung, 6.63 µM. In addition, the TGI in the assay on HL-60(TB) leukemia was 24.6 µM; in the assay on T-47D breast it was 4.46 µM; in the assay on SF-539 CNS, 4.95 µM; in the assay on SF-268 CNS, 27.1 µM; with LOX IMVI melanoma, 15.6 µM; with K-562 leukemia it was 20.9 µM. Further, the TGI in the assay on HCC-2998 colon was determined as 8.04 µM; in the assay with HT29 colon, 18.5 µM; in the assay with MALME-3M melanoma, 22.4 µM; in the assay on NCI-H460 lung, 19.6 µM.
As to `COc1cc2c(cc1OC)[C@H]1C(=O)c3cc4c(cc3[C@H]1N(C)C2=O)OCO4`, the TGI with HL-60(TB) leukemia was > 68.6 µM; in the assay with T-47D breast, > 100 µM; with SF-539 CNS, > 77.8 µM; in the assay with SF-268 CNS, > 100 µM; with LOX IMVI melanoma, > 40.8 µM; with K-562 leukemia it was > 100 µM. The TGI with HCC-2998 colon was > 100 µM; in the assay with HT29 colon it was > 100 µM; with MALME-3M melanoma it was > 89.5 µM; in the assay with NCI-H460 lung, > 100 µM.
On to `COc1cc(C(=O)N/N=C/c2cccc([N+](=O)[O-])c2)cc(OC)c1OC`, for which the GI50 was 762 nM in the assay with HL-60(TB) leukemia; 35600 nM with T-47D breast; 3280 nM in the assay with SF-539 CNS; 5.57 µM in the assay on SF-268 CNS; 4.69 µM in the assay on LOX IMVI melanoma; 872 nM in the assay with K-562 leukemia. Besides, the GI50 in the assay with HCC-2998 colon is 7950 nM; in the assay on HT29 colon, 2.89 µM; in the assay on MALME-3M melanoma, 2750 nM; in the assay with NCI-H460 lung, 3.23 µM. Moreover, the TGI with HL-60(TB) leukemia is 10.2 µM; in the assay with T-47D breast, > 100 µM; in the assay on SF-539 CNS it was 16.9 µM; in the assay with SF-268 CNS, > 100 µM; with LOX IMVI melanoma it was > 100 µM; in the assay on K-562 leukemia, > 100 µM. Also, the TGI was 59.5 µM in the assay on HCC-2998 colon, 8.1 µM in the assay with HT29 colon, 9.86 µM in the assay on MALME-3M melanoma and > 100 µM with NCI-H460 lung.
Take `CCOC(=O)C1=C(c2ccccc2)N(Cc2ccccc2)C2(O)C=CC(=O)C3C(=O)N(c4ccccc4)C(=O)C132` (stereo not given): the GI50 in the assay with HL-60(TB) leukemia is 1800 nM; with T-47D breast it was 1670 nM; in the assay with SF-539 CNS, 1910 nM; with SF-268 CNS it was 2.56 µM; with LOX IMVI melanoma, 1.34 µM; in the assay with K-562 leukemia it was 2200 nM. Also, the GI50 is 1770 nM with HCC-2998 colon, 1.93 µM in the assay with HT29 colon, 1790 nM in the assay with MALME-3M melanoma and 1.53 µM in the assay on NCI-H460 lung. The TGI stood at 4.58 µM in the assay with HL-60(TB) leukemia; 4.44 µM in the assay with T-47D breast; 3.76 µM in the assay with SF-539 CNS; 8.08 µM with SF-268 CNS; 2.67 µM with LOX IMVI melanoma; 8.79 µM with K-562 leukemia. Besides, the concentration for total growth inhibition (TGI) in the assay with HCC-2998 colon was determined as 3.26 µM; in the assay on HT29 colon it was 4.83 µM; in the assay on MALME-3M melanoma it was 3.34 µM; with NCI-H460 lung it was 3.49 µM.
As for `O=C(NO)C(O)C(O)C(O)C(O)CO` (stereo not given), the GI50 with HL-60(TB) leukemia was > 21500 nM; in the assay on T-47D breast, > 100000 nM; in the assay with SF-539 CNS, > 100000 nM; in the assay with SF-268 CNS it was > 100 µM; with LOX IMVI melanoma, > 100 µM and 94.8 µM; with K-562 leukemia it was > 87600 nM and 47100 nM. The GI50 in the assay with HCC-2998 colon is > 100000 nM; in the assay on HT29 colon, > 100 µM and 38.1 µM; with MALME-3M melanoma, > 100000 nM; in the assay on NCI-H460 lung it was 54.6 µM and 37.9 µM. In addition, the TGI in the assay on HL-60(TB) leukemia is > 21.5 µM; in the assay on T-47D breast, > 100 µM; in the assay with SF-539 CNS, > 100 µM; in the assay on SF-268 CNS, > 100 µM; with LOX IMVI melanoma it was > 100 µM; with K-562 leukemia, > 100 µM. The TGI with HCC-2998 colon, in the assay on HT29 colon, in the assay with MALME-3M melanoma and with NCI-H460 lung was > 100 µM each time.
As for `CCCCCCCCCCCCNC(=O)[C@H]1CSC(c2ccc(OC)c(F)c2)N1` (stereo not given in full), the GI50 was 1630 nM in the assay on HL-60(TB) leukemia; 1750 nM in the assay with T-47D breast; 785 nM with SF-539 CNS; 0.216 µM with SF-268 CNS; 0.19 µM in the assay on LOX IMVI melanoma; 215 nM in the assay with K-562 leukemia. Also, the GI50 in the assay on HCC-2998 colon was 1750 nM; in the assay on HT29 colon, 0.837 µM; in the assay with MALME-3M melanoma, 1780 nM; in the assay on NCI-H460 lung, 1.74 µM. Also, the TGI with HL-60(TB) leukemia came to 3.59 µM; with T-47D breast, 3.66 µM; in the assay on SF-539 CNS it was 2.14 µM; with SF-268 CNS, 0.455 µM; with LOX IMVI melanoma, 0.398 µM; with K-562 leukemia, 0.938 µM. Besides, the concentration for total growth inhibition (TGI) with HCC-2998 colon turned out to be 3.33 µM; in the assay on HT29 colon it was 2.42 µM; with MALME-3M melanoma, 3.24 µM; in the assay with NCI-H460 lung, 3.63 µM.
Turning to `Cc1nn(C(=O)c2ccccc2O)c2c1C(c1ccc(O)cc1)SC(N)=N2` (stereo not given), the TGI is > 4.33 µM with HL-60(TB) leukemia; 9.72 µM with T-47D breast; > 2.47 µM in the assay on SF-539 CNS; > 10 µM with SF-268 CNS; > 10 µM in the assay on LOX IMVI melanoma; > 3.53 µM in the assay with K-562 leukemia. Further, the TGI with HCC-2998 colon, in the assay with HT29 colon, in the assay with MALME-3M melanoma and with NCI-H460 lung was > 10 µM in each case.

Source of the values: PubChem BioAssay (NCI).
